In patent US6165732A, “Method for identifying apoptosis modulating compounds” (Washington University, priority 1998, dated 2000):
Where two headings read alike, the source gives them in different places.

Assays:
[1] = cited from earlier work
[2] = cited from earlier work; remark: listed apart in the source
[3] = Cl- release (efflux) from KCl loaded synthetic lipid vesicles as a function of pH; format: biochemical
Method: This example illustrates that Bax and Bcl-2 induce the release of ions from synthetic lipid vesicles.
Unilamellar vesicles composed of 40% 1,2 dioleoyl phosphatidyl glycerol and 60% 1,2 dioleoyl phosphatidyl choline (Avanti Polar Lipids) were prepared in 100 mM KCl, 2 mM CaNO3 and 10 mM dimethylglutarate, pH 5.0 as previously described (Peterson et al., J. Membr. Biol. 99:197-204, 1987). The resulting liposomes were diluted 200-fold to a concentration of 0.05 mg/ml in 100 mM KNO3, 2 mM CaNO3 and 10 mM dimethylglutarate which was titrated to pH 3.5, 4.0, 4.5, 5.0, 5.5 or 6.0 with NaOH or with acetic acid. BaxΔC19 and Bcl-2ΔC21 were added at a concentration of 500 ng/ml and Cl^- efflux was measured with a Cl^- combination ion selective electrode (Accumet). Triton X-100 (0.1%) was added to release the total encapsulated Cl^- at the times indicated by the arrows in FIG. 1. The total amount of Cl^- released was quantitated by a calibration curve produced by successive additions of 25 μM KCl.

[4] = Channels in planar lipid bilayers at pH 7.0 after fusion with unilamellar proteoliposomes containing the protein; format: biochemical; details: for conductance pattern / ion selectivity of channel / rectification: neutral pH; for ion selectivity of channel: proteoliposome fusion; for rectification: symmetrical KCl
Source text: (§1) The Bax and Bcl-2 polypeptides used in the ion channel studies reported herein were recombinant murine Bcl-2 and Bax polypeptides lacking the C-terminal signal-anchor membrane targeting sequence (Bcl-2ΔC21, amino acids 1-218 of SEQ ID NO:9 and BaxΔC19, amino acids 1-173 of SEQ ID NO:6). These deletion derivatives, also referred to herein as BaxΔTM and Bcl-2ΔTM, were used to avoid any interference of the C-terminal signal-anchor membrane targeting sequence with the capacity of internal α helices to mediate insertion into artificial lipid bilayers.
(§2) Planar lipid bilayers were prepared from soybean lipids by chloroform extraction of Azolectin Type II (10-20% choline, 80-90% negatively charged lipids) (Sigma). The chloroform was removed with a stream of nitrogen and the lipids stored under N2 until dissolved in decane at 30 mg/ml. This preparation was then stored under nitrogen. The 0.25 mm orifice of a polystyrene cuvette (Warner Instruments) was pretreated with 2 μl of the decane lipid solution and the solvent allowed to evaporate. The cuvette was then placed into a bilayer chamber and connected to Bilayer Clamp BC525-a (Warner Instruments) by Ag/AgCl electrodes via agar salt bridges. Data were collected using an Axoscope (Axon Instruments Software), archived on video tape using a Neurocorder DR-484 (Neuro Data Instruments), and analyzed using Origin (Microcal) and pClamp6 (Axon Instruments Software). Slope conductance was calculated by the method of least squares and the variance is given. Ion selectivities were calculated using the reversal potential and the Goldman equation. The reversal potential means the zero-current potential of a bilayer membrane. The reversal potential is zero with no ion gradient and the magnitude of the potential in the presence of an ion gradient reflects the cation versus anion selectivity of the bilayer.
Proteoliposomes for fusion with a planar lipid bilayer were prepared as follows. Purified protein (0.25 μg) was added to […] lipid (Azolectin) in 20 μl of KCl buffer (150 mM KCl, 10 mM HEPES, pH 7.0). This mixture was placed into a dialysis bag with a molecular weight cutoff of 12 KDa. After 16 hours dialysis in 3000 volumes of 150 mM KCl (10 mM HEPES, pH 7.0) the proteoliposome suspension was removed and placed on ice for immediate use. The bilayer was set up with a 450:150 cis to trans KCl gradient to identify the ion selectivity of the initial currents. Fusion was initiated by adding 5-20 μl of lipid vesicles (only 5-20 ng of protein) to the cis bilayer chamber with mixing. Non-fused proteoliposomes were removed from the compartments and solutions exchanged as described above.
Control bilayers containing Bcl-2 or Bax channels were prepared by fusion of unilamellar proteoliposomes with incorporated Bcl-2ΔTM or BaxΔTM with an established planar bilayer as described in Example 4. Test bilayers containing Bcl-2 channels were prepared in the same manner to which an 11 mer Bax peptide (SEQ ID NO:1) with known death agonist activity was added at 20, 50 or 100 μM. A voltage of 80 mV was applied to each control and test channel and its conductance measured for a period of 12 to 16 seconds and the frequency that each channel was measured at a particular conductance level (pA) was calculated. The data, representing about 500,000 measurements, are shown as histograms in FIGS. 8A-8E. […]

[5] = Low pH channel formation after addition of protein to an established planar lipid bilayer; format: biochemical; details: for initial current (direction): 450/150 mM KCl cis to trans, pH 4.0, spontaneous (OS); for conductance of initial channel: pH 4.0, initial current; for effect of shifting pH on conductance and selectivity: pH 4.0 to 7.0; for PK/PCl after pH shift to 7.0: pH 7.0 after insertion at pH 4.0; for ion selectivity of channel: low pH insertion
Source text: as §1, §2
Bilayers were formed by spreading with a polished glass rod and allowed to thin to a capacitance of 0.4 μF/cm^2 at which point the noise was typically 0.2 pA and the leak conductance was 20 pS. The salt concentrations were initially 450 mM KCl in the cis chamber (1.0 ml) and 150 mM KCl in the trans chamber (0.5 ml) to permit identification of spontaneous initial currents. Outward (positive) currents were defined as K^+ moving cis-to trans. All solutions were buffered to pH 4.0 with 10 mM K-acetate. BaxΔTM or Bcl-2ΔTM (approx. 1 μg) was added to the cis chamber with mixing. After initial currents were identified the soluble protein was usually removed by exchanging the cis chamber contents with aliquots of buffer.

[6] = physiological pH (Antonsson et al.)
[7] = planar lipid bilayers, pH 7.0 (Antonsson et al.)
[8] = pH 4.0, same quantities of each protein
[9] = stated as behaviour like Bax / Bcl-2 (criterion)
[10] = 450/150 mM KCl gradient, pH 7.0

In the case of “Bax: recombinant murine Bax polypeptide lacking the C-terminal signal-anchor membrane targeting sequence (amino acids 1-173 of SEQ ID NO:6)”, the “pore-forming activity in liposomes” value [1, 6] is listed as “intrinsic pore-forming activity”, the ion selectivity [2, 7] is listed as “cation selective” and the “permeability ratio of Na+ to Cl-” value [2, 7] is listed as “about 2.1”. The ion selectivity ([2]; planar lipid bilayers, pH 7.0 (Antonsson et al.), listed as BaxΔTM) was “slightly cation selective”, the “highest pH with retained activity (ion release from liposomes)” value [3] was ≤ 5.5 pH and the “pH of maximum release of Cl-” value ([3]; 500 ng/ml, FIG. 1A) was 4.0-4.5 pH. The “Cl- release from KCl loaded lipid vesicles” value ([3]; pH 3.5) was 41%, the “release of Cl-, decrease from maximum” value ([3]; pH 3.5, 500 ng/ml, FIG. 1A) was 50% and the “Cl- release from KCl loaded lipid vesicles” value [3, 8] was 75%. The “Cl- release from KCl loaded lipid vesicles” value ([3]; pH 5.0) was 41%, the “release of Cl-, decrease from maximum” value ([3]; pH 5.0, 500 ng/ml, FIG. 1A) was 50% and the “release of Cl-, decrease from maximum” value ([3]; pH 5.5, 500 ng/ml, FIG. 1A) was “less than 10%”. The “release of Cl- on pH shift” value ([3]; pH 6.0 shifted to pH 4.0, FIG. 1C) was “a rapid release of Cl^-”, the “ratio of channel indicator release at pH 3.5 and pH 4.0 (R3.5/4.0)” value [3, 9] was “less than 1” and the “less frequent conductance peak” value ([4]; 80 mV, no peptide) was “about 65 pA”. The “PK/PCl from reversal potential” value [4, 10] was 0.32, the “initial current (direction)” value [4, 10] was “inward (PK <PCl) current” and the “duration of periodic channel closing” value ([4]; -70 mV, symmetrical 150 mM KCl) was 20 to 30 ms. The conductance pattern [4] was “simpler single channel conductance pattern”, the “ion selectivity of channel” value [4] was “Cl^- -selective” and the “channel conductance at negative voltages” value ([4]; symmetrical 150 mM KCl, pH 7.0) was 1.5 (sd 0.3, n=3) nS. For the same molecule, the rectification [4] was “Mild outward rectification”, the “initial current (direction)” value [5] was “initial, inward current” and the “conductance of initial channel” value ([5]; 450/150 mM KCl) was 22 (s.d. 5, n=5) pS. For the same molecule, the “conductance of initial channel” value ([5]; 450/150 mM KCl, listed as BaxΔTM) was 22 pS, the “time to appearance of initial current” value ([5]; 450/150 mM KCl, pH 4.0, listed as BAXΔTM) was ≤ 10 min and the “time to appearance of initial current” value ([5]; 450/150 mM KCl, pH 4.0, listed as BaxΔTM) was “Four”. The “duration of channel transition” value ([5]; +40 mV, pH 4.0) was ~ 5 mins, the “current level, C and OS” value ([5]; +40 mV, transition, pH 4.0) was 0 pA and the “current level, O1” value ([5]; +40 mV, transition, pH 4.0) was 2.36 pA. For the same molecule, the “current level, O1+2” value ([5]; +40 mV, transition, pH 4.0) was 8.81 pA, the “current level, O2” value ([5]; +40 mV, transition, pH 4.0) was 6.4 pA and the “current level, C” value ([5]; -40 mV, transition, pH 4.0) was 0 pA. The “current level, O1” value ([5]; -40 mV, transition, pH 4.0) was -10.9 pA, the “current level, O1+2” value ([5]; -40 mV, transition, pH 4.0) was -30.5 pA and the “current level, OS” value ([5]; -40 mV, transition, pH 4.0) was -2.14 pA. The voltage dependence ([5]; hyperpolarization to -40 mV, pH 4.0) was “increased the channel activity”, the “slope conductance of final stable channel” value ([5]; pH 4.0) was 0.731±0.01 nS and the “PK/PCl (Cl- selectivity, average over current levels)” value ([5]; pH 4.0, from reversal potential) was 0.10. For the same molecule, the “effect of shifting pH on conductance and selectivity” value [5] was “altered the conductance and selectivity of Bax”, the current-voltage relation ([5]; pH 7.0) was “linear with voltage” and the “conductance after pH shift to 7.0” value ([5]; pH 7.0, 450/150 mM KCl gradient) was 0.329±0.002 nS. The “conductance after pH shift to 7.0” value ([5]; pH 7.0, both chambers 150 mM KCl) was 0.302±0.008 nS, the “PK/PCl after pH shift to 7.0” value [5] was 0.5 and the “time from initial appearance to channel progression” value ([5]; planar bilayers) was 2 to 4 min. For the same molecule, the “ion selectivity of channel” value ([5]; planar bilayers) was “consistent anion selectivity” and the “ion selectivity of channel” value ([5]; planar bilayers, listed as BAX) was “Cl^- selective”.

B1: Bcl-2: recombinant murine Bcl-2 polypeptide lacking the C-terminal signal-anchor membrane targeting sequence (amino acids 1-218 of SEQ ID NO:9) (protein)
chain: MAQAGRTGYDNREIVMKYIHYKLSQRGYEWDAGDADAAPLGAAPTPGIFSFQPESNPMPAVHREMAARTSPLRPLVATAGPALSPVPPCVHLTLRRAGDDFSRRYRRDFAEMSSQLHLTPFTARGRFATVVEELFRDGVNWGRIVAFFEFGGVMCVESVNREMSPLVDNIALWMTEYLNRHLHTWIQDNGGWDAFVELYGPSMRPLFDFSWLSLKTLL
In the case of B1, the “pore forming activity in lipid vesicles” value ([1]; pH above 5.5) is listed as “little or no detectable pore forming activity”, the “insertion into synthetic lipid vesicles” value ([1]; pH values below 5.5) is listed as “insert into synthetic lipid vesicles at pH values below 5.5” and the “antagonism of BaxΔTM pore-forming activity in liposomes” value [1, 6] is listed as “antagonized”. The primary channel conductance ([2]; lipid bilayers, physiological pH (Schendel et al.)) was 18±2 pS, the ion selectivity ([2]; pH 5.4 (Schendel et al.)) was “cation selective” and the multiple conductance states ([2]; planar lipid bilayers, physiological pH) was “multiple channel conductance states”. The “inactivation of Cl- release” value ([3]; by pH 5.0, 500 ng/ml, FIG. 1B) was “complete inactivation”, the “Cl- release from KCl loaded lipid vesicles” value ([3]; pH 3.5) was 81% and the “relative activity of Bcl-2 versus Bax (Cl- release)” value ([3]; pH 3.5) was “twice as active as Bax”. The “Cl- release from KCl loaded lipid vesicles” value [3, 8] was 75%, the “Cl- release from KCl loaded lipid vesicles” value ([3]; pH 5.0) was 7% and the “release of Cl- on pH shift” value ([3]; pH 5.0 shifted to 4.0, FIG. 1D) was “activated the release of Cl^-”. The “ratio of channel indicator release at pH 3.5 and pH 4.0 (R3.5/4.0)” value [3, 9] was “about 1.0”, the “ratio of indicator release at pH 4.0 and 5.0 (R4.0/5.0)” value [3, 9] was “greater than 7.0” and the single channel current ([4]; 450/150 mM KCl gradient, FIG. 5A) was 5 pA. The “PK/PCl from reversal potential” value [4, 10] was 2.4, the “initial current (direction)” value [4, 10] was “outward (K^+) current” and the conductance pattern [4] was “complex multichannel conductance pattern”. For the same molecule, the “ion selectivity of channel” value [4] was “K^+ -selective”, the “voltage dependence of open channel current” value ([4]; symmetrical 150 mM KCl) was “linear” and the “hyperpolarization beyond which a channel closure occurs” value ([4]; symmetrical 150 mM KCl, FIG. 5C) was “more than -70 mV”. For the same molecule, the slope conductance ([4]; symmetrical 150 mM KCl, pH 7.0) was 1.08 (s.d. 0.10, n=5) nS, the rectification [4] was “no rectification” and the “initial current (direction)” value [5] was “initial outward”. For the same molecule, the “PK/PCl of initial current” value ([5]; 450/150 mM KCl, pH 4.0) was 3.9, the “magnitude of initial current” value ([5]; 450/150 mM KCl, pH 4.0) was 0.85±0.06 pA and the “time to appearance of initial current” value ([5]; 450/150 mM KCl, pH 4.0) was ≤ 5 min. For the same molecule, the “conductance of initial channel” value ([5]; 450/150 mM KCl) was 80.3±0.06 pS, the “conductance of initial channel” value ([5]; 450/150 mM KCl, listed as Bcl-2ΔTM) was 80 pS and the “duration of initial state” value ([5]; pH 4.0) was 2 to 5 min. For the same molecule, the “slope conductance of final stable channel” value ([5]; pH 4.0) was 1.90±0.06 nS, the “duration of channel open periods” value ([5]; pH 4.0, with brief closures) was 5 to 10 s and the “effect of shifting pH on conductance and selectivity” value [5] was “not Bcl-2”. For the same molecule, the “PK/PCl after pH shift to 7.0” value [5] was 6.5, the “conductance of large pore after pH shift to 7.0” value ([5]; pH shifted to 7.0, FIG. 4E) was 2.14±0.04 nS and the “ion selectivity of channel” value ([5]; planar bilayers) was “mild cation selectivity”.
